The values below come from patent US6133322A, “Quinone derivatives for treating or preventing diseases associated with iron overload” (Institut National de la Sante et de la Recherche Medicale …, priority 1998, dated 2000).

Experiment [1] relates to membrane lipids. The experiment is described as follows: Iron-induced peroxidation of membrane lipids (cis-parinaric acid fluorescent probe) in human heart homogenates. Type of experiment: biochemical. Conditions: for iron-induced damages of the membrane components (in words): in vitro system, summary; for peroxidation of membrane lipids (in words): FIG. 1A, iron form added to heart homogenate. How it is done: (§1) Human heart homogenates were used as an in vitro model to mimic the action of iron on mitochondrial ISPs and to test the potentially protective effect of various substances.
(§2) These homogenates were prepared under low iron-chelating conditions using the procedures described in Rustin P. et al., Biochemical and molecular investigations in respiratory chain deficiencies, Clin. Chim. Acta., 228, 35-51 (1994). Briefly, homogenate from frozen human heart was obtained surgically and prepared at ice-melting temperature in a 0.1 M Tris-HCI buffer (pH 7.3) by five strokes of hand-driven ground glass potter using the procedures described in Sanchez-Casis et al., Pathology of the heart in Friedreich's ataxia: review of the literature and report of one case, Can. J. Neurol. Sci., 3, 349-354 (1977). After filtering through a 90 μm nylon net, homogenate was sampled and frozen at -80° C. for enzyme studies.
(§3) The endogenous antioxidant defenses of heart mitochondria were neutralized by simple dilution, and free access of iron to its specific targets was achieved by freeze-thaw disrupting mitochondrial membranes.
Lipoperoxidation, a marker of non-specific peroxidative damages caused to membrane components, was monitored in the presence of either reduced or oxidized iron. Cis-parinaric acid (c-PN) was used as a fluorescent probe for lipoperoxidation (15,16). Measurements were performed in a 37° C. thermostated quartz cell, magnetically stirred, and containing 2 ml 0.1 M Tris-HCI buffer (pH 7.3) using a LS540B Spectrofluorimeter (Perkin-Elmer, England). Excitation: 318 nm; 5 nm band-pass Emission: 410 nm; 5 nm band-pass.
(§4) Lipids peroxidation, complex II activity, and aconitase activity were monitored according to the methods of example 1 above.

Experiment [2] has as its system aconitases. The experiment in a line: Aconitase activity (aconitate accumulation at 240 nm in the presence of citrate) in human heart homogenate. Particulars: for Iron-induced damages to: Aconitases: 5 nM Fe^2+ + 2 nM EDTA + 6 U of the one enzyme. Type of experiment: biochemical. How it is done: as §1, §2, §3
(§5) The activities of two enzymes specifically targeted in FRDA, namely membrane-bound respiratory chain complex II and soluble (mitochondrial plus cytosolic) aconitases, were monitored under either low or high iron chelating conditions, in the presence of either reduced or oxidized iron. Complex II activity was measured on freeze-thaw heart homogenate as the dichlorophenolindophenol quinone reductase (DCPIP) (14). Aconitase activity in heart homogenate, corresponding to the combined mitochondrial and cytosolic enzyme activities, was measured by following the aconitate accumulation at 240 nm in the presence of citrate (6). All measurements were performed using a DW2000 Aminco Spectrophotometer (SLM, USA) in a 37° C. thermostated quartz cell, magnetically stirred, and containing 2 ml 0.1 M Tris-HCI buffer (pH 7.3).
as §4
Aconitase was assayed after additional 3 min incubation with 250 μM desferrixamine. Trace b: Aconitase activity measured after 6 min incubation in Tris-HCI buffer containing 250 μM desferrioxamine in the absence of Fe^2+.

Experiment [3] relates to complex II. The experiment is described as follows: Complex II activity (succinate quinone DCPIP reductase) in freeze-thaw human heart homogenate. Type of experiment: biochemical. Particulars: for protection of complex II from iron induced damages (in words): succinate alone or 60 μM oxidized idebenone alone, FIG. 2C traces a, b. On the procedure: as §1, §2, §3, §5, §4

The test system of experiment [4] is FRDA patients. The experiment is described as follows: Idebenone administration in FRDA patients: cardiac hypertrophy and cerebellar ataxia. It is filed as in vivo, human. How it is done: Based on the previous in vitro data and owing to the innocuousness of the drug, five children ranging in age from 71/2 to 14 years and two young adults, all diagnosed with FDRA, were given idebenone orally (5 mg/kg/day).
The results observed after a course of treatment ranging from about 4 to about 9 months of administration at this dosage, are shown in FIG. 3:
A) Follow up of heart ultrasound parameters in patients 1, 6 and 7. LV: left ventricle. Note the decreased septal and left ventricle posterior wall thickness;
B) changes in cerebellar ataxia noted by parents and uninformed teachers. ®: Unchanged; : decrease; 0: No initial involvement.

Setting [5] is: 5 nM Fe^2+ + 50 μM quinone, no succinate.
[6] abbreviates: 5 nM Fe^2+ + 10 mM succinate + 50 μM quinone.
The mark [7] stands for this setting: idebenone orally 5 mg/kg/day, about 4 to about 9 months.
Setting [8] is: noted by the parents and uninformed teachers.
Setting [9] is: quinone reduced in situ by the respiratory chain (succinate).

`COC1=C(OC)C(=O)C(CC=C(C)CCC=C(C)CCC=C(C)CCC=C(C)C)=C(C)C1=O` [CoQ4]: the “Iron-induced damages to: Lipids” value in experiment [1] (setting [5]) is recorded as -74 ± 3%; in experiment [1] (setting [6]) it was -1 ± 1%.
In the case of `COC1=C(OC)C(=O)C(CC=C(C)CCC=C(C)CCC=C(C)CCC=C(C)CCC=C(C)CCC=C(C)CCC=C(C)CCC=C(C)CCC=C(C)CCC=C(C)C)=C(C)C1=O` [CoQ10], the entries for the “Iron-induced damages to: Lipids” value in experiment [1] (setting [5]) and in experiment [1] (setting [6]) were -66 ± 2% and -1 ± 0.4%, respectively. Moreover, the “protection against iron-induced lipoperoxidation (in words)” value in experiment [1] (8 μM CoQ10 reduced in situ by 3 min incubation with 10 mM succinate, FIG. 2B trace b) is given as “full protection”; in experiment [1] (8 μM oxidized CoQ10, absence of succinate, FIG. 2B trace a) it was “did not protect from iron-induced lipoperoxidation”. Besides, the “decrease of aconitase activity” value in experiment [2] (3 min with 5 nM Fe^2+ + 8 μM CoQ10 without succinate, then 3 min 250 μM desferrioxamine, FIG. 2D trace c) turned out to be 77%.
Consider `O=C(O)CN(CCN(CC(=O)O)CC(=O)O)CC(=O)O` [EDTA], for which, in experiment [1] (5 nM Fe^2+ + 2 nM EDTA), the “Iron-induced damages to: Lipids” value is -2 ± 1%. In addition, the “protection of complex II activity (in words)” value in experiment [3] (1 nM EDTA added to the iron-supplemented (5 nM reduced iron) medium, FIG. 1B trace b) is recorded as “fully protected”.
`O=C1O[C@H]([C@@H](O)CO)C(O)=C1O` [ascorbate]: the “iron-induced damages of the membrane components (in words)” value (“iron-induced damages … (in words)” for short) in experiment [1] is given as “enhancing these damages”.
As for `CC(=O)N(O)CCCCCNC(=O)CCC(=O)N(O)CCCCCNC(=O)CCC(=O)N(O)CCCCCN` [desferrioxamine], the “Iron-induced damages to: Lipids” value in experiment [1] (5 nM Fe^2+ + 120 μM desferrioxamine) was found to be 0 ± 1%. Moreover, the “decrease in aconitase activity (in words)” value in experiment [2] (200 μM desferrioxamine alone, 6 min pre-incubation, no Fe^2+, FIG. 2D trace b) is reported as “no decrease in enzyme activity”. Besides, in experiment [2] (250 μM desferrioxamine + 5 nM reduced iron, FIG. 1C trace d), the “loss of aconitase activity” value was determined as 80%. Moreover, in experiment [2] (desferrioxamine in the absence of iron, FIG. 1C trace c), the “inhibition of aconitase activity (in words)” value is listed as “No inhibition of aconitase activity”.
As for `N[C@@H](CCC(=O)N[C@@H](CS)C(=O)NCC(=O)O)C(=O)O` [glutathione], the “iron-induced damages … (in words)” value in experiment [1] was “enhancing these damages”.
As to `COC1=C(OC)C(=O)C(CCCCCCCCCCO)=C(C)C1=O` [idebenone, 6-(10-hydroxydecyl)-2,3-dimethoxy-5-methyl-1,4-benzoquinone], the “myocardial hypertrophy (in words)” value in experiment [4] (4 to 9 month regime, five FRDA patients) is “significant decrease”. Besides, in experiment [4] (after a 9 month course), the “deep tendon reflexes (in words)” value is “have not reappeared”. Moreover, in experiment [4] (setting [7]), the “improvement of asynergia/dysmetria (finger-nose test) (patients improved/total)” value was 3/5, the “improvement of delicate movements (handwriting) (patients improved/total)” value is 4/5, the “improvement of gait ataxia (patients improved/total)” value is 2/5 and the “improvement of muscle strength (patients improved/total)” value is 5/5. In experiment [4] (setting [8]), the “general condition (in words)” value is “improvement” and the “hand clumsiness (in words)” value is recorded as “decrease”. Also, in experiment [4] (ultrasound, three patients), the “decrease of left ventricle mass index” value is -21 to -32%, the “reduction of left ventricle wall” value is recorded as -8 to -20% and the “reduction of septal thickness” value was -31 to -36%. Also, in experiment [1] (5 nM Fe^2+ + 60 μM idebenone, no succinate), the “Iron-induced damages to: Lipids” value is on record as -63 ± 4%. Moreover, the “Iron-induced damages to: Lipids” value in experiment [1] (5 nM Fe^2+ + 10 mM succinate + 60 μM idebenone) is listed as -1 ± 0.4%. Moreover, the “protection against iron-induced lipoperoxidation (in words)” value in experiment [1] (60 μM oxidized idebenone, 3 min, no succinate, FIG. 2A trace a) is recorded as “No protection”. Also, the “protection against iron-induced lipoperoxidation (in words)” value in experiment [1] (idebenone reduced in situ by succinate (about 2 μM reduced), FIG. 2A trace b) is listed as “significant protection”. The “protection against iron-induced lipoperoxidation (in words)” value in experiment [1] (longer incubation with succinate (12 μM reduced; 20% of total idebenone), FIG. 2A trace c) was “enhanced”. Besides, in experiment [1] (setting [9]), the “protection of membrane lipids against iron injury (in words)” value is listed as “efficiently protected”. The “protection of membrane-anchored complex II against iron injury (in words)” value in experiment [3] (setting [9]) is “efficiently protected”. Also, in experiment [3], the “protection of complex II from iron induced damages (in words)” value was “did not protect complex II”. In addition, the “protection of complex II activity (in words)” value in experiment [3] (succinate and 60 μM idebenone added simultaneously (20% of idebenone reduced), FIG. 2C trace c) is recorded as “full protection”. Moreover, in experiment [2] (Table 2), the “prevention of the loss of aconitase activity induced by water-soluble chelators in the presence of reduced iron (in words)” value was “neither succinate nor idebenone nor succinate+idebenone prevents the loss of aconitase activity”.
As for `O=C(O)CCC(=O)O` [succinate], in experiment [1] (5 nM Fe^2+ + 10 mM succinate), the “Iron-induced damages to: Lipids” value is -58 ± 3%. Further, the “protection of membrane lipids against iron-induced peroxidation (in words)” value in experiment [1] (succinate alone) was “failed to protect”. Besides, the “protection of complex II from iron induced damages (in words)” value in experiment [3] is given as “did not protect complex II”.
In the case of “SOD: superoxide dismutase, water-soluble antioxidant enzyme”, the “iron-induced damages … (in words)” value in experiment [1] was “unable to prevent”. For the same molecule, the “Iron-induced damages to: Aconitases” value in experiment [2] is recorded as -75 ± 1%.
As to ferric chloride [Fe^3+], the “peroxidation of membrane lipids (in words)” value is given as “no damage was observed” in experiment [1] and “did not significantly after membrane lipids” in experiment [1] (listed as oxidized iron).
On to ferrous chloride [Fe^2+], for which the “peroxidation of membrane lipids (in words)” value in experiment [1] (listed as Reduced iron) is listed as “triggered an immediate peroxidation of the membrane lipid”; in experiment [1] (listed as reduced iron) it was “rapid lipoperoxidation”. Moreover, the “activity of complex II (in words)” value in experiment [3] (1 min incubation with 5 nM reduced iron, FIG. 1B trace c) is recorded as “strongly affected”. Besides, the “aconitase activity (in words)” value in experiment [2] (10 min incubation with 5 nM reduced iron, FIG. 1C trace b) was “not affected”.

B1: catalase: water-soluble antioxidant enzyme (protein, UniProt P04040 2-527, looked up)
Catalase: ADSRDPASDQMQHWKEQRAAQKADVLTTGAGNPVGDKLNVITVGPRGPLLVQDVVFTDEMAHFDRERIPERVVHAKGAGAFGYFEVTHDITKYSKAKVFEHIGKKTPIAVRFSTVAGESGSADTVRDPRGFAVKFYTEDGNWDLVGNNTPIFFIRDPILFPSFIHSQKRNPQTHLKDPDMVWDFWSLRPESLHQVSFLFSDRGIPDGHRHMNGYGSHTFKLVNANGEAVYCKFHYKTDQGIKNLSVEDAARLSQEDPDYGIRDLFNAIATGKYPSWTFYIQVMTFNQAETFPFNPFDLTKVWPHKDYPLIPVGKLVLNRNPVNYFAEVEQIAFDPSNMPPGIEASPDKMLQGRLFAYPDTHRHRLGPNYLHIPVNCPYRARVANYQRDGPMCMQDNQGGAPNYYPNSFGAPEQQPSALEHSIQYSGEVRRFNTANDDNVTQVRAFYVNVLNEEQRKRLCENIAGHLKDAQIFIQKKAVKNFTEVHPDYGSHIQALLDKYNAEKPKNAIHTFVQSGSHLAAREKANL
With B1, the “iron-induced damages … (in words)” value in experiment [1] is “unable to prevent”. Also, the “Iron-induced damages to: Aconitases” value in experiment [2] is given as -46 ± 2%.
